The term IC50 denotes the concentration that inhibits the measured activity by half. What is called Kd is the free concentration of one partner at which half of the binding sites on the other are occupied at equilibrium, for simple one-to-one binding. A high value points to lower affinity.

The subject of one test is U937 (human myeloid leukemia) cell line. The test is described as follows: MTT cell viability, U937. The format is cell-based. The following applies: U-937, 48 h, positive control for HeLa and U937, cell line not specified, read-out: IC50 of positive control. As to the method: HeLa (cervical carcinoma) and U937 (pro-monocytic, human myeloid leukemia) cell lines were purchased from the American Type Cell Culture (ATCC) (Rockville, MD, USA). HeLa cells were maintained in DMEM, and U937 were cultured in RPMI 1640, both supplemented with 10% FBS, 100 mg/L streptomycin, and penicillin 100 IU/mL at 37 °C in a humidified atmosphere of 5% CO2. To ensure logarithmic growth, cells were subcultured every 2 days. Stock solutions of compound in DMSO were stored in the dark at 4 °C. Appropriate dilutions were prepared in culture medium immediately prior to use. […] PBMCs were isolated from buffy coats of healthy donors (kindly provided by the Blood Center of the Hospital of Battipaglia, Italy) by using standard Ficoll-Hypaque gradients. PBMCs were incubated with DMSO or compound 1 at 30 μM for 48 h. […] The number of viable cells was quantified by the MTT [3-(4,5-dimethylthiazol-2-yl)-2,5-diphenyl tetrazolium bromide] assay. Absorption at 550 nm for each well was assessed using Multiskan GO (Thermo Scientific). Half-maximal inhibitory concentration (IC50) values were calculated using GraphPad Prism 8. Experiments were performed in technical triplicates and repeated two times with similar results.
Take `C[C@@H]1C[C@H]2O[C@@H]2/C=C\C=C\C(=O)Cc2c(Cl)c(O)cc(O)c2C(=O)O1` [radicicol, reference compound]: the IC50 was found to be 250 nM.

In another test the target is Hsp90α (Homo sapiens, UniProt P07900). The test is described as follows: Surface plasmon resonance binding to immobilized Hsp90α. The following applies: SPR, 25 °C, mean ± standard deviation (n = 3). The arrangement: purchased Stress-gen Bioreagents Corporation, Victoria, Canada SPP-776. As to the method: 1 and 4 μM), and, for each sample, a complete binding study was carried out in triplicate. The experiments were performed at 25 °C, using a flow rate of 50 μL/min, with 60 s monitoring of association and 300 s monitoring of dissociation. Changes in mass, due to the binding response, were recorded as resonance units (RU). To obtain the dissociation constant (KD), these responses were fit to a 1:1 Langmuir binding model by nonlinear regression, using the BiaEvaluation sofware program (GE Healthcare). Simple interactions were suitably fitted to a single-site bimolecular interaction model (A + B = AB), yielding a single KD.
As for `C/C=C(\C)C(=O)O[C@@H]1/C=C\C2=C3CC(=O)O[C@@H](c4ccoc4)[C@]3(C)CC[C@]2(O)[C@]2(C)C(=O)C[C@@]1(C)[C@@H]2CC(=O)OC` (relative stereo) [Compound 3, (9R*)-hydroxychisomicine A], the KD result is “no binding”.

For `C=C(C)C(=O)O[C@@H]1/C=C\[C@]2(O)C3=CC(=O)O[C@@H](c4ccoc4)[C@]3(C)CC[C@]2(O)[C@]2(C)C(=O)C[C@@]1(C)[C@@H]2CC(=O)OC` [Compound 2, chisomicine E], the KD entry is “no binding”.

As to `COC(=O)C[C@H]1C(C)(C)[C@H](OC(=O)C(O)C(C)C)[C@@H]2C=C3C4CC(=O)O[C@@H](c5ccoc5)[C@]4(C)CC[C@@H]3[C@@]1(C)C2=O` (stereo partly drawn) [Compound 4, 3-(2′-hydroxyisovaleroyl)khasenegasin I], the KD entry is given as “no binding”.

On to `CC(=O)O[C@H]1C[C@@]2(C)[C@H](C3=CC(=O)O[C@@H]3O)OC(=O)[C@H]3O[C@]32[C@@]2(C)[C@H]1[C@@]1(C)C=CC(=O)OC(C)(C)[C@@H]1C[C@H]2OC(C)=O` [Compound 5, 7-deoxo-7α,11β-diacetoxykihadanin A], for which the KD result is reported as “no binding”.

In the case of `CC(=O)O[C@H]1C[C@@]2(C)[C@H](C3=CC(=O)O[C@@H]3O)OC(=O)[C@H]3O[C@]32[C@@]2(C)[C@H]1[C@@]1(C)[C@@H](OC(C)=O)CC(=O)OC(C)(C)[C@@H]1C[C@H]2OC(C)=O` [Compound 6, 1,2-dihydro-7-deoxo-1α,7α,11β-triacetoxykihadanin A], the KD entry is given as “no binding”.

For `CC(=O)O[C@H]1CC(=O)OC(C)(C)[C@@H]2C[C@@H](OC(C)=O)[C@@]3(C)C4=CC[C@@H](C(O)(CO)CCO)[C@]4(C)CC[C@@H]3[C@@]12C` (stereo partly drawn) [Compound 7, cedrelosin F], the KD result is listed as “no binding”.

Take `CC(=O)O[C@H]1C[C@@]2(C)[C@H](c3ccoc3)OC(=O)[C@H]3O[C@]32[C@]2(C)[C@H](O)C[C@H]3C(C)(C)O[C@H]4CC(=O)OC[C@]43[C@@H]12` [Compound 8, 11β-acetoxylimonol]: binding was put at a Kd of 24.8 ± 2.3 nM.

Consider `CC(=O)O[C@H]1C[C@@]2(C)[C@H](C3=C[C@@H](O)OC3=O)OC(=O)[C@H]3O[C@]32[C@@]2(C)[C@H]1[C@@]13COC(=O)C[C@@H]1OC(C)(C)[C@@H]3C[C@H]2OC(C)=O` [Compound 9, 11β-acetoxycedrelosin B], for which the KD entry is reported as “low affinity” and binding was put at a Kd of 183 ± 18.9 nM.

Turning to `CC(=O)O[C@H]1C[C@@]2(C)[C@H](c3ccoc3)OC(=O)[C@H]3O[C@]32[C@@]2(C)[C@H]1[C@@]1(C)[C@@H](OC(C)=O)CC(=O)OC(C)(C)[C@@H]1C[C@H]2OC(C)=O` [Compound 10, 7α,11β-diacetoxydihydronomilin], the KD result is listed as “no binding”.

With `CC(=O)O[C@H]1C[C@@]2(C)[C@H](c3ccoc3)OC(=O)[C@H]3O[C@]32[C@@]2(C)[C@H]1[C@@]1(C)C=CC(=O)OC(C)(C)[C@@H]1C[C@H]2OC(C)=O` [Compound 11, 11β-acetoxybacunyl acetate], the Kd is 25.3 ± 1.8 nM.

Turning to `COC(=O)C[C@H](OC(C)=O)[C@]1(C)[C@H]2[C@@H](OC(C)=O)C[C@@]3(C)[C@H](c4ccoc4)OC(=O)[C@H]4O[C@]43[C@]2(C)[C@H](OC(C)=O)C[C@H]1C(C)(C)O` [Compound 12, odoralide], the KD entry is listed as “no binding”.

Consider `COC(=O)[C@@H](OC(C)=O)[C@H]1C(C)(C)[C@H](O)[C@@H]2CC3=C4CC(=O)O[C@@H](c5ccoc5)[C@]4(C)CC[C@@H]3[C@@]1(C)C2=O` [Compound 13, 6-O-acetylswietenolide], for which the affinity, expressed as Kd, was 25.5 ± 3.4 nM.

Take `COC(=O)C[C@H]1C(C)(C)[C@H](O)[C@@H]2CC3=C4CC(=O)O[C@@H](c5ccoc5)[C@]4(C)CC[C@@H]3[C@@]1(C)C2=O` [Compound 14, proceranolide]: the KD result is listed as “no binding”.

The record behind these values is publication PMC8041370, “Limonoids from Guarea guidonia and Cedrela odorata: Heat Shock Protein 90 (Hsp90) Modulator Properties of Chisomicine D” (Journal of Natural Products, 2021).
